Experimental data published in patent US20220107328A1, “METHODS OF TREATING LIVER DISEASES” (Camp4 Therapeutics Corporation, priority 2018, published 2022).

How the values were obtained:
TGFB1 mRNA = assay: qRT-PCR of fibrosis related genes in stellate cells, TGFB1; format: cell-based, human; details: stellate cells P7, 0.5 μM, 18 hours
Procedure: (§1) Stellate cells P7 were treated with 0.5 μM of each of the indicated compounds for 18 hours. Cells were processed for RNA extraction and qRT-PCR as previously described. The assay was repeated in triplicate.

MMP2 mRNA = assay: qRT-PCR of fibrosis related genes in stellate cells, MMP2; format: cell-based, human; details: stellate cells P7, 0.5 μM, 18 hours
Procedure: as §1

ACTA2 mRNA = assay: qRT-PCR of fibrosis related genes in stellate cells, ACTA2; format: cell-based, human; details: stellate cells P7, 0.5 μM, 18 hours
Procedure: as §1

PNPLA3 expression = assay: RNA-seq of compound-treated primary human hepatocytes; format: cell-based; details: PNPLA3 expression, RNA-seq
Procedure: (§4) Cryopreserved hepatocytes were cultured in plating media for 16 hours, transferred to maintenance media for 4 hours. Cultured on serum-free media for 2 hours, then a compound was added. The hepatocytes were maintained on the serum-free media for 16 hours prior to gene expression analysis.
(§5) Human hepatocytes cultured as described above were plated in 24-well format, adding 375,000 cells per well in a volume of 500 μl plating medium. Four hours before treatment, cells were washed with PBS and the medium was changed to either: fresh maintenance medium (complete) or modified maintenance medium.
(§6) Compound stocks were prepared at 1000× final concentration and added in a 2-step dilution to the medium to reduce risk of a compound precipitating out of solution when added to the cells, and to ensure reasonable pipetting volumes. One at a time, each compound was first diluted 10-fold in warm (about 37° C.) modified maintenance medium (initial dilution=ID), mixed by vortexing, and the ID was diluted 100-fold into the cell culture (e.g. 5.1 μl into 1 well of a 24-well plate containing 0.5 mL medium). The plate was mixed by carefully swirling and after all wells were treated and returned to the incubator overnight. If desired, separate plates/wells were treated with vehicle-only controls and/or positive controls. If using multi-well plates, controls were included on each plate. After about 18 hours, cells were harvested for further analysis, e.g., ChIP-seq, RNA-seq, ATAC-seq, etc.
The expression level of each gene was quantified with normalized FPKM (fragments per kilobase of exon per million mapped fragments). The differentially expressed genes were called using Cuffdiff v2.2.1 with q value<0.01 and log2 fold change>=1 or <=−1.
To identify small molecules that modulate PNPLA3, primary human hepatocytes were prepared as a monoculture, and at least one small molecule compound was applied to the cells.
RNA-seq was performed to determine the effects of the compounds on PNPLA3 expression in hepatocytes. Fold change was calculated by dividing the level of expression in the cell system that had been perturbed by the level of expression in an unperturbed system. Changes in expression having a p-value≤0.05 were considered significant.

PCSK9 mRNA = assay: qRT-PCR of PCSK9 mRNA in primary hepatocytes; format: cell-based, human; details: donor 4178, 3 μM, relative to GUSB
TIM2 mRNA = assay: qRT-PCR of fibrosis related genes in stellate cells, TIM2; format: cell-based, human; details: stellate cells P7, 0.5 μM, 18 hours
Procedure: as §1

COL1A2 mRNA = assay: qRT-PCR of fibrosis related genes in stellate cells, COL1A2; format: cell-based, human; details: stellate cells P7, 0.5 μM, 18 hours
Procedure: as §1

[1] = test system: COL1A1 mRNA in mouse liver; assay: In vivo compound testing in wild-type mice, liver COL1A1 mRNA; details: 50 mg/kg once daily, oral gavage, four days; GFAP as control
Procedure: A group of 6 mice (C57BL/6J strain), 3 male and 3 female, were administered with a candidate compound once daily via oral gavage for four consecutive days. Mice were sacrificed 4 hours post-last dose on the fourth day. Organs including liver, spleen, kidney, adipose, plasma were collected. Mouse liver tissues were pulverized in liquid nitrogen and aliquoted into small microtubes. TRIzol (Invitrogen Cat #15596026) was added to the tubes to facilitate cell lysis from tissue samples. The TRIzol solution containing the disrupted tissue was then centrifuged and the supernatant phase was collected. Total RNA was extracted from the supernatant using Qiagen RNA Extraction Kit (Qiagen Cat #74182) and the target mRNA levels were analyzed using qRT-PCR.
Candidate compounds were administered at an appropriate dose once daily to a group of wild-type mice consisting of 3 male and 3 female mice. Mice were sacrificed on the fourth day and liver tissue was collected and analyzed for PNPLA3 (or COL1A1) expression by qRT-PCR. […] When COL1A1 was analyzed, a stellate cell specific gene GFAP was used as a house-keeping control.

COL1A1 mRNA = assay: qRT-PCR of COL1A1 mRNA in human primary hepatic stellate cells; format: cell-based
PNPLA3 mRNA [2] = assay: qRT-PCR of PNPLA3 mRNA in human primary hepatic stellate cells; format: cell-based
PNPLA3 mRNA [3] = assay: qRT-PCR of PNPLA3 mRNA in compound-treated primary human hepatocytes
Procedure: as §4, §5, §6
Analysis of the fold changes in expression as measured by qRT-PCR were performed using the technique below. The control was DMSO, and the treatment was the selected compound (CPD). The internal control was GAPDH or B-Actin (or otherwise indicated), and the gene of interest is the target. First, the averages of the 4 conditions were calculated for normalization: DMSO:GAPDH, DMSO:Target, CPD: GAPDH, and CPD:Target. Next, the ΔCT of both control and treatment were calculated to normalize to internal control (GAPDH) using (DMSO:Target)−(DMSO:GAPDH)=ΔCT control and (CPD:Target)−(CPD: GAPDH)=ΔCT experimental. Then, the ΔΔCT was calculated by ΔCT experimental−ΔCT control. The Expression Fold Change (or Relative Quantification, abbreviated as RQ) was calculated by 2−(ΔΔCT) (2-fold expression change was shown by RNA-Seq results provided herein).
The aim of the validation studies was to test the identified compounds from key pathways, and expand the compound franchise to identify other potential hits. Candidate compounds were subjected to validation with qRT-PCR in human hepatocytes. qRT-PCR was performed on samples of primary human hepatocytes from a second donor treated with the candidate compounds. Compounds were tested at concentrations ranging from 0.01 μM to 50 μM, with the majority tested at 10 μM.
Primary human hepatocytes and stellate cells were also incubated with inhibitors of the TGFβ pathway and PNPLA3 gene expression changes assessed via qRT-PCR as previously described. In addition, primary hepatocytes and stellate cells were treated with TGFβ-ligand alone or with selected the small molecule inhibitors for 18 hours and subsequently harvested. for gene expression assays.
The other set was harvest for mRNA processing as previously described.

[4] = test system: ANGPTL3 mRNA in mouse liver; assay: High sucrose diet mouse dose response study, liver ANGPTL3 mRNA; format: in vivo; details: HS diet mice, 6 hours post dose
[5] = test system: PNPLA5 mRNA in mouse liver; assay: High sucrose diet mouse dose response study, liver PNPLA5 mRNA; format: in vivo; details: HS diet mice, 6 hours post dose
Procedure: (§2) C57BL/6J mice were divided into 14 groups. Each group had 6 male mice. All mice were given an HS diet at night on a synchronized schedule. […] The animals received no food at night on Day 10.
(§3) Mouse liver tissues were pulverized in liquid nitrogen and aliquoted into small microtubes. TRIzol (Invitrogen Cat #15596026) was added to the tubes to facilitate cell lysis from tissue samples. The TRIzol solution containing the disrupted tissue was then centrifuged and the supernatant phase was collected. Total RNA was extracted from the supernatant using Qiagen RNA Extraction Kit (Qiagen Cat #74182) and the target mRNA levels were analyzed using qRT-PCR. mRNA levels for PNPLA3, PNPLA5, COL1A1, and PCSK9 were assessed.

[6] = test system: PCSK9 mRNA in mouse liver; assay: High sucrose diet mouse dose response study, liver PCSK9 mRNA; format: in vivo; details: HS diet mice, 6 hours post dose
Procedure: as §2, §3

[7] = test system: COL1A1 mRNA in mouse liver; assay: High sucrose diet mouse dose response study, liver COL1A1 mRNA; format: in vivo; details: HS diet mice, 6 hours post dose
Procedure: as §2, §3

[8] = High sucrose diet mouse pharmacology study, toxicity; details: OSI-027 50 mg/kg, PF-04691502 10 mg/kg, LY2157299 75 mg/kg, QD oral gavage four days
Procedure: C57BL/6J mice were divided into 12 groups. Each group had 6 male mice. All mice were given a high sucrose (HS) diet at night on a synchronized schedule. The diet regimen was initiated 6 days prior to dosing. Starting Day 7, mice were administered with a single concentration of a candidate compound four times QD daily via oral gavage for four consecutive days. […] Groups 1-10 received food throughout the dosing period. Groups 11-14 received food for three out of the four nights of the dosing and were fed the following morning along with the final dose of the drug. Mice in groups 1-10 were sacrificed 12 hours post-last dose on Day 11, and mice in groups 11-14 were sacrificed 6 hours post-last dose on Day 11. Organs including liver, spleen, kidney, adipose, plasma, and muscle were collected. Eyes were also collected for groups 11-14.

[9] = test system: PNPLA3 mRNA in mouse liver; assay: High sucrose diet mouse pharmacology study, liver PNPLA3 mRNA; format: in vivo; details: HS diet mice
Procedure: LY2157299 was also tested in vivo. C57BL/6J mice were divided into […]. Each group had 6 male mice. […] Groups 1-10 received food throughout the dosing period. […] Eyes were also collected for groups 11-14.
as §3, with “Cat#74182)” for “Cat #74182)”, “PNPLA3” for “target”, “qRT-PCR.” for “qRT-PCR. mRNA levels for PNPLA3, PNPLA5, COL1A1, and PCSK9 were assessed.”
as §2, §3

[10] = hepatic stellate cells, 0.01 μM
[11] = hepatic stellate cells, serial dilutions, 18 hours
[12] = stellate cells P7, 0.5 μM, 18 hours

Compound: CNC(=O)Nc1ccc(-c2nc(N3CC4CCC(C3)O4)c3cnn(C4CCC5(CC4)OCCO5)c3n2)cc1 [WYE-125132]
- Relative mRNA TGFB1 (TGFB1 mRNA): 1.10 ± 0.03
- Relative mRNA MMP2 (MMP2 mRNA): 1.33 ± 0.02
- Relative mRNA ACTA2 (ACTA2 mRNA): 0.54 ± 0.01
- Fold change (Log 2) vs untreated (PNPLA3 expression): −0.86
- Primary Hepatocytes 4178 PCSK9 (fold change in mRNA expression) (PCSK9 mRNA): 0.43
- Relative mRNA TIMP2 (TIM2 mRNA): 1.01 ± 0.07
- Relative mRNA COL1A2 (COL1A2 mRNA): 0.27 ± 0.00
- COL1A1 expression in mouse liver (in words) [1]: reduced COL1A1 expression in mouse liver
- Primary Stellate cells COL1A1 (fold change in mRNA expression) (COL1A1 mRNA; 3 μM, relative to GAPDH): 0.46
- Relative COL1A1 mRNA levels RQ (COL1A1 mRNA; [10]): 0.92
- Relative COL1A1 mRNA levels RQ (COL1A1 mRNA; hepatic stellate cells, 0.1 μM): 0.42
- Relative COL1A1 mRNA levels RQ (COL1A1 mRNA; hepatic stellate cells, 1 μM): 0.26
- Relative COL1A1 mRNA levels RQ (COL1A1 mRNA; hepatic stellate cells, 10 μM): 0.29
- COL1A1 expression (in words) (COL1A1 mRNA; [11]): decreased both PNPLA3 and COL1A1 in HSCs in a dose-dependent manner
- Relative mRNA COL1A1 (COL1A1 mRNA; [12]): 0.22 ± 0.01
- Primary Stellate cells PNPLA3 (fold change in mRNA expression) (PNPLA3 mRNA [2]; 3 μM, relative to GAPDH): 0.54
- Relative PNPLA3 mRNA levels RQ (PNPLA3 mRNA [2]; [10]): 0.44
- Relative PNPLA3 mRNA levels RQ (PNPLA3 mRNA [2]; hepatic stellate cells, 0.1 μM): 0.36
- Relative PNPLA3 mRNA levels RQ (PNPLA3 mRNA [2]; hepatic stellate cells, 1 μM): 0.42
- Relative PNPLA3 mRNA levels RQ (PNPLA3 mRNA [2]; hepatic stellate cells, 10 μM): 0.42
- PNPLA3 mRNA levels (in words) (PNPLA3 mRNA [2]; [11]): decreased both PNPLA3 and COL1A1 in HSCs in a dose-dependent manner
- Relative mRNA PNPLA3 (PNPLA3 mRNA [2]; [12]): 0.20 ± 0.01
- Relative PNPLA3 mRNA levels (PNPLA3 mRNA [3]; 1 μM of WYE-125132, human hepatocytes, qRT-PCR, mean of three replicates ± standard deviation): 0.67 ± 0.09
- Primary Hepatocytes 4178 PNPLA3 (fold change in mRNA expression) (PNPLA3 mRNA [3]; donor 4178, 3 μM, relative to GUSB): 0.43
- Primary Hepatocytes 4282 PNPLA3 (fold change in mRNA expression) (PNPLA3 mRNA [3]; donor 4282, 3 μM, relative to GUSB): 0.70
- PNPLA3 expression by reported compound specificity (in words) (PNPLA3 mRNA [3]; summary of mTOR/PI3K inhibitor testing): did decrease PNPLA3 expression

Compound: Cc1cccc(-c2nn3c(c2-c2ccnc4ccc(C(N)=O)cc24)CCC3)n1 [LY2157299, Galunisertib]
- ANGPTL3 liver mRNA, dose titration (in words) [4]: decrease in COL1A1 and ANGLPTL3 mRNA
- PNPLA5 liver mRNA, dose titration (in words) [5]: did not show a significant decrease in PNPLA3 or PNPLA5 mRNA
- PCSK9 liver mRNA, dose titration (in words) [6]: three lower doses (50 mg/kg, 25 mg/kg, and 10 mg/kg) resulted in a decrease in PCSK9 mRNA
- COL1A1 liver mRNA, dose titration (in words) [7]: decrease in COL1A1 and ANGLPTL3 mRNA
- toxicity in animals [8]: did not show toxicity
- PNPLA3 liver mRNA, 12 hours post-dose (in words) ([9]; QD oral gavage four days, OSI-027 50 mg/kg, PF-04691502 10 mg/kg, LY2157299 75 mg/kg): reduced PNPLA3 mRNA at 12 hours post-dose
- PNPLA3 liver mRNA, dose titration (in words) ([9]; decreasing doses QD oral gavage four days, 6 hours post dose): did not show a significant decrease in PNPLA3 or PNPLA5 mRNA
- PNPLA3 expression, co-treatment with TGFβ-ligand (in words) (PNPLA3 mRNA [3]; hepatocytes, TGFb-ligand-induced expression): PNPLA3 expression was reduced
